According to article PMC6413125 (International Journal of Molecular Sciences, 2019):

Columns and labels:
Format in all cases: biochemical
[1] = biological target: T1, Yeast Prion Protein Sup35p (Sup35p7–13) (Saccharomyces cerevisiae, UniProt P05453)
T1 construct: gene SUP35

[2] = biological target: T2, nucleophosmin 1 (NPM1_264–277) (Homo sapiens, UniProt P06748); assay: ESI-MS adducts; IC50 from ThT aggregation assay; CD
T2 construct: gene NPM1; helix H2 of C-terminal domain, residues 264–277 ([…])

Aβ21–40 = biological target: T3, Aβ21–40 (Homo sapiens, UniProt P05067); assay: ESI-MS adducts ([…] and […]); IC50 from ThT aggregation assay
T3 construct: gene APP
T3 sequence (P05067 692-711): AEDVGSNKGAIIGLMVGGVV

CSC1=[S+][Pt-2]([Cl])([S+](C)(C)=O)[O]C(c2cccc(O)c2)=C1 (stereo not drawn) [compound 1, 1]
IC50 [1]: 55 ± 1.12 µM
IC50 [2]: 62.3 ± 1.3 µM
IC50 (Aβ21–40): 19.9 ± 1.6 µM
